Experimental data reported in PMC6154319, “Intestinal Transport Characteristics and Metabolism of C-Glucosyl Dihydrochalcone, Aspalathin” (Molecules : A Journal of Synthetic Chemistry and Natural …, 2017).
Where two headings read alike, the source gives them in different places. Marks after values point to notes of the source that are not given here.

Experiments:
[1] = Stability of aspalathin (in SB1) in water and HEPES buffer; type: physicochemical; conditions: 2 h incubation, aspalathin in extract SB1
GLUT2 = target: T1, GLUT2 (Homo sapiens, UniProt P11168); conditions: aspalathin 100 µM; 100 µM phloretin (GLUT2)
T1 sequence (P11168 1-524): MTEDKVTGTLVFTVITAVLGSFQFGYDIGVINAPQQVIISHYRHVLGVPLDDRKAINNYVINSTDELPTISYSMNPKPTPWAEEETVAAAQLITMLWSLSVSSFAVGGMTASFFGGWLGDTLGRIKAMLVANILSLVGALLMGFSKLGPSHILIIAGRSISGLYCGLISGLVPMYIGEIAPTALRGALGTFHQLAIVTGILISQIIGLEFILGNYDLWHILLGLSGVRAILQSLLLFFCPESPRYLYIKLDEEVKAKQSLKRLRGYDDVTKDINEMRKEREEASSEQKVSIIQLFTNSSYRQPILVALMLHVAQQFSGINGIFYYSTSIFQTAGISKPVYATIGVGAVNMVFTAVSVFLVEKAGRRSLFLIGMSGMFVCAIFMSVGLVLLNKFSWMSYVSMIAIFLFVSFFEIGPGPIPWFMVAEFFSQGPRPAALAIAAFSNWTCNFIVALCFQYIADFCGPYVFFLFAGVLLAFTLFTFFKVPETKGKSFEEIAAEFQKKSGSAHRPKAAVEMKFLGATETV

Caco-2 cells = test: Cytotoxicity of aspalathin on Caco-2 cells (Vialight plus kit); type: cell-based, human; conditions: HBSS buffer pH 6.0, apical side; 2 h exposure
Text: Supplementary material for:
Intestinal Transport Characteristics and Metabolism of C-Glucosyl Dihydrochalcone, Aspalathin
Sandra Bowles 1,*, Elizabeth Joubert 2,3, Dalene de Beer 2,3, Johan Louw 1,4, Christel Brunschwig 5,6,7, Mathew Njoroge 5,6,7, Nina Lawrence 6, Lubbe Wiesner 7, Kelly Chibale 5,6,8,9, and Christo […]
1 Biomedical Research and Innovation Platform, South African Medical Research Council, Tygerberg, Cape Town, 7130, South Africa; johan.louw@mrc.ac.za (J.L.); christo.muller@mrc.ac.za (C.M.) 2 Plant Bioactives Group, Post-Harvest and Wine Technology Division, Agricultural Research Council, Infruitec-Nietvoorbij, Stellenbosch 7600, South Africa; JoubertL@arc.agric.za (E.J.); DBeerD@arc.agric.za […]
3 Department of Food Science, Stellenbosch University, Stellenbosch 7600, South Africa 4 Department of Biochemistry and Microbiology, University of Zululand, Kwa-Dlangezwa 3886, South […]
Caco-2 cells was assessed by the VialightTM plus kit. Caco-2 cells were seeded at a density of 4 x 10^4 cells/cm2 into white clear bottomed 96-well plates and cytotoxicity was assessed according to the manufacturer’s recommendation after 12–13 days. […]

[2] = Lipophilicity, LogD7.4 (n-octanol / phosphate buffer shake flask); type: physicochemical; conditions: phosphate buffer pH 7.4 / n-octanol
Method: For determination of the lipophilicity of aspalathin, a 10 mM stock solution prepared in DMSO was used to spike (100 µM) a 1:1 mixture of phosphate buffer (pH 7.4) and n-octanol. The solutions were shaken vigorously (1500 rpm) on an orbital shaker for 4 h at room temperature. Thereafter, the samples were centrifuged (3500 rpm, 2700× g) in order to fully separate the two immiscible fluids. The samples analysed using HPLC-DAD (Agilent 1200 Rapid Resolution HPLC) and the partition coefficient, LogD7.4 calculated.

PgP = PgP (Homo sapiens, UniProt P08183); conditions: aspalathin 100 µM; 100 µM verapamil (PgP)
Sequence of PgP (P08183 whole entry): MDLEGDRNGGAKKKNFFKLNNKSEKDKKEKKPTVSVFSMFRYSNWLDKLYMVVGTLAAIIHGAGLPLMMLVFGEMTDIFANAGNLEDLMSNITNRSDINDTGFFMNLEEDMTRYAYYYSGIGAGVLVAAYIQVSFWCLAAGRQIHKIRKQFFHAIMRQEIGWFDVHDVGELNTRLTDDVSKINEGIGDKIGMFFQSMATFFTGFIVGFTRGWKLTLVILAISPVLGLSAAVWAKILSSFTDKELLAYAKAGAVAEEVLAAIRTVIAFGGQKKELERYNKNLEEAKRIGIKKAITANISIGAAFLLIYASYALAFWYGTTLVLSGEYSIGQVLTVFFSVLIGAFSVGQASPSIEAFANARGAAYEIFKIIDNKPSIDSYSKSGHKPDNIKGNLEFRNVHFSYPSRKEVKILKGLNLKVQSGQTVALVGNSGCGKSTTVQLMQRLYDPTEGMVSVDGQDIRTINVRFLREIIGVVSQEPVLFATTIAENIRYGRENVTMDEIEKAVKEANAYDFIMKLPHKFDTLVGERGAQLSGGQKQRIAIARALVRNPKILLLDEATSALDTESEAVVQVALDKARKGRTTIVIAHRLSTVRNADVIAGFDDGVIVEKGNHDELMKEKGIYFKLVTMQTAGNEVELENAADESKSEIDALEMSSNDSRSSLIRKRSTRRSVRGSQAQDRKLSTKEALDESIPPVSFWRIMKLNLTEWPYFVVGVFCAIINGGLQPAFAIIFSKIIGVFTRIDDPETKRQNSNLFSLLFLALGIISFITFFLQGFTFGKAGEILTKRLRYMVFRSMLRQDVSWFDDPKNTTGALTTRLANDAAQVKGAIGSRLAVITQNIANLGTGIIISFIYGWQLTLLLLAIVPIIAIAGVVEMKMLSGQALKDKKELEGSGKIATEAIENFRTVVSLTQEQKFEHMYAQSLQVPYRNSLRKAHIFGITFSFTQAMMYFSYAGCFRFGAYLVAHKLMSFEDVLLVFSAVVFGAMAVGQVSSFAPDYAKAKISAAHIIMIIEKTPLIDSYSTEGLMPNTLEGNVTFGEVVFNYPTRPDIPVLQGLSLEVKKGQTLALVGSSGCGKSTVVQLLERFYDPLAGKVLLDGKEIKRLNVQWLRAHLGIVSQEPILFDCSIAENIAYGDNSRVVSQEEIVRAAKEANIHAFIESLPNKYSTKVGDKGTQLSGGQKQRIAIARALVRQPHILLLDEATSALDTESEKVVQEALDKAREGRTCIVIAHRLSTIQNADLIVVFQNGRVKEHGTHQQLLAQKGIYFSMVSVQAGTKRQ
Method: The cell monolayers were equilibrated briefly with transport buffer, pH 6.0 (HBSS with 2-(N-morpholino) ethanesulphonic acid (MES)) on the apical side and pH 7.4 (HBSS with HEPES) on the basolateral side, to remove traces of the culture media. Following this, transport buffers were added for 30 min prior to the addition of treatment (inhibitors were added during this step when required, as well as during the subsequent treatment incubation step). After equilibration, the plates containing transport medium were incubated for 30 min at 37 °C at 5% CO2 in 95% humidified air and the TEER value of the monolayer determined. […] For basolateral-to-apical compartment studies, 2.4 mL of treatment at the same concentrations in HBSS (pH 7.4), was added to the basolateral compartment.
To assess whether aspalathin was co-transported with glucose, its transport (100 µM) at both high (20.5 mM) and low (5.5 mM) glucose concentrations, mimicking the intestinal lumen glucose concentrations pre- and post-meals, was monitored. This was followed by experiments performed in the presence and absence of SGLT1 (100 µM phloridzin), GLUT2 (100 µM phloretin) and efflux, PgP (100 µM verapamil) inhibitors.
Samples (1.2 mL) were withdrawn from the basolateral or the apical compartment to measure the concentration of aspalathin uptake and efflux, respectively at 0, 0.5, 1, 1.5, and 2 h under sink conditions (the sample aliquot replaced with equal volume of relevant transport buffer). Sample aliquots (350 µL) were frozen in liquid nitrogen after the addition of ascorbic acid (35 µL of 10% solution) and stored at −65 °C until HPLC analysis. Results were corrected for dilution and expressed as cumulative transport (% of initial dose) as a function of time. Papp (cm/s) for bi-directional transport studies was calculated as previously described. Transport of other major flavonoids in the matrices, i.e., nothofagin, the 3-deoxy analogue of aspalathin and its flavone derivatives, orientin and isoorientin, were also determined.

intestinal epithelium = test system: intestinal epithelium; design: method as in earlier work; conditions: ref 37 Huang et al., cited from earlier work

O=C(CCc1ccc(O)c(O)c1)c1c(O)cc(O)c([C@@H]2O[C@H](CO)[C@@H](O)[C@H](O)[C@H]2O)c1O [Aspalathin]
percentage aspalathin degradation ([1]; HEPES buffer pH 6): 10% | percentage aspalathin degradation ([1]; HEPES buffer pH 7.4): 11% | percentage aspalathin degradation ([1]; deionised water): 1% | Papp a-b + Inhibitor (phloretin) (GLUT2): 1.67 ± 0.43 ^c ×10^−6 cm/s | Papp b-a + Inhibitor (phloretin) (GLUT2): 1.95 ± 1.1 ^c ×10^−6 cm/s | maximum concentration not cytotoxic to Caco-2 cells (>80% viability) (Caco-2 cells): 150 µM | Log D at pH 7.4 [2]: 0.13 | Efflux Ratio + Inhibitor (verapamil) (PgP): 1.1 ^c | Papp a-b + Inhibitor (verapamil) (PgP): 1.84 ± 0.20 ^c ×10^−6 cm/s | Papp b-a + Inhibitor (verapamil) (PgP): 1.94 ± 0.68 ^c ×10^−6 cm/s | transport of aspalathin (Papp) (intestinal epithelium; equal concentration of pure aspalathin): 2.48 ± 0.03 × 10^−6 cm/s | transport of aspalathin (Papp) (intestinal epithelium; from a green rooibos extract solution): 3.49 ± 1.45 × 10^−6 cm/s
